Test results as given in patent US20230143612A1 (Arbutus Biopharma Corporation, priority 2020, published 2023).

These molecules were tested against PD-L1 His protein / PD-1 Fc protein (Homo sapiens, UniProt Q9NZQ7) (assay: HTRF Assay (PD-1/PD-L1 interaction)). Details: PD-L1 His 6 nM, PD-1 Fc 6 nM.
Format: binding
In short: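 Compounds tested from 20 μM down to 0.001 μM (3-fold) against 6 nM PD-L1 His and 6 nM PD-1 Fc, 15 min room temperature incubation. Detection after 1 h at room temperature with Tb cryptate anti-6HIS and XL665 anti-human IgG reagents (mixture at 0.35 nM and 6.7 nM), HTRF signal.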

Chain of PD-L1 His protein / PD-1 Fc protein (Q9NZQ7 19-238 limits assumed): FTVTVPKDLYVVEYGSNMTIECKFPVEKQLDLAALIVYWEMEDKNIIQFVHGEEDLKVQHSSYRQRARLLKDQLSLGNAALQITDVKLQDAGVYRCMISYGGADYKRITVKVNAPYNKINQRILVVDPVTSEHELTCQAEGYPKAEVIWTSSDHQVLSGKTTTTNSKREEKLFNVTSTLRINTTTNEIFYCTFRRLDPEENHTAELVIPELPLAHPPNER

`COc1cc(-c2cccc(-c3cccc(-c4ccc(CNC[C@@H]5CCC(=O)N5)c(OC)n4)c3Cl)c2Cl)cc2c1CN(C[C@@H](C)O)CC2` [Example 419, (S)-5-((((6-(2,2′-Dichloro-3′-(2-((R)-2-hydroxypropyl)-8-methoxy-1,2,3,4-tetrahydroisoquinolin-6-yl)-[1,1′-biphenyl]-3-yl)-2-methoxypyridin-3-yl)methyl)amino)methyl)pyrrolidin-2-one] and `COc1cc(-c2cccc(-c3cccc(-c4ccc(CNC[C@@H]5CCC(=O)N5)c(OC)n4)c3Cl)c2Cl)cc2c1CCN(C[C@@H]1CCC(=O)N1)C2` [Example 424, (S)-5-((((6-(2,2′-Dichloro-3′-(5-methoxy-2-(((S)-5-oxopyrrolidin-2-yl)methyl)-1,2,3,4-tetrahydroisoquinolin-7-yl)-[1,1′-biphenyl]-3-yl)-2-methoxypyridin-3-yl)methyl)amino)methyl)pyrrolidin-2-one] are within 1.5-fold of each other in IC50: 26 nM for the first, 27 nM for the second.

Compared with `COc1nc(-c2cccc(-c3cccc(-c4ccn5c(=O)c6c(nc5c4)OCCNC6)c3Cl)c2Cl)ccc1CNC[C@@H]1CCC(=O)N1` [Example 396, (S)-10-(2,2′-Dichloro-3′-(6-methoxy-5-((((5-oxopyrrolidin-2-yl)methyl)amino)methyl)pyridin-2-yl)-[1,1′-biphenyl]-3-yl)-4,5-dihydro-2H-pyrido[1′,2′:1,2]pyrimido[5,4-f][1,4]oxazepin-6(3H)-one], `COc1nc(-c2cccc(-c3cccc(-c4ccn5c(=O)c(CNCC6(O)CC6)cnc5c4)c3Cl)c2Cl)ccc1CNC[C@@H]1CCC(=O)N1` [Example 234, (S)-8-(2,2′-Dichloro-3′-(6-methoxy-5-((((5-oxopyrrolidin-2-yl)methyl)amino)methyl)pyridin-2-yl)-[1,1′-biphenyl]-3-yl)-3-((((1-hydroxycyclopropyl)methyl)amino)methyl)-4H-pyrido[1,2-a]pyrimidin-4-one] is 150-fold lower in IC50: 15 nM for the first, 0.1 nM for the second.

Going from `COc1nc(-c2cccc(-c3cccc(-c4ccc5nc(CNC[C@@H]6CCC(=O)N6)cn5c4)c3Cl)c2Cl)ccc1CNC[C@@H]1CCC(=O)N1` [Example 356, (5S)-5-[[[6-[2-Chloro-3-[2-chloro-3-[2-[[[(2S)-5-oxopyrrolidin-2-yl]methylamino]methyl]imidazo[1,2-a]pyridin-6-yl]phenyl]phenyl]-2-methoxy-3-pyridyl]methylamino]methyl]pyrrolidin-2-one] to `COc1nc(-c2cccc(-c3cccc(-c4ccn5c(=O)cc(CNC[C@@H]6CCC(=O)N6)nc5c4)c3Cl)c2Cl)ccc1CNC[C@@H]1CCC(=O)N1` [Example 156, 8-(2,2′-Dichloro-3′-(6-methoxy-5-(((((S)-5-oxopyrrolidin-2-yl)methyl)amino)methyl)pyridin-2-yl)-[1,1′-biphenyl]-3-yl)-2-(((((S)-5-oxopyrrolidin-2-yl)methyl)amino)methyl)-4H-pyrido[1,2-a]pyrimidin-4-one], the IC50 falls from 86 nM to 1.4 nM (61-fold).

`COc1nc(-c2cccc(-c3cccc(-c4ccn5c(=O)c(CNC[C@@H]6CCC(=O)N6)cnc5c4)c3Cl)c2Cl)cnc1N1CC(N)C1` [Example 71, (S)-8-(3′-(5-(3-Aminoazetidin-1-yl)-6-methoxypyrazin-2-yl)-2,2′-dichloro-[1,1′-biphenyl]-3-yl)-3-((((5-oxopyrrolidin-2-yl)methyl)amino)methyl)-4H-pyrido[1,2-a]pyrimidin-4-one] and `COc1nc(-c2cccc(-c3cccc(-c4ccn5c(=O)c(CNC[C@@H]6CCC(=O)N6)cnc5c4)c3Cl)c2Cl)ccc1CN1CC(C(C)(C)O)C1` [Example 112, (S)-8-(2,2′-Dichloro-3′-(5-((3-(2-hydroxypropan-2-yl)azetidin-1-yl)methyl)-6-methoxypyridin-2-yl)-[1,1′-biphenyl]-3-yl)-3-((((5-oxopyrrolidin-2-yl)methyl)amino)methyl)-4H-pyrido[1,2-a]pyrimidin-4-one] are within 1.5-fold of each other in IC50: 2 nM for the first, 2.9 nM for the second.

Compared with `COc1nc(-c2cccc(-c3cccc(-c4ccn5c(=O)cc(CN6C[C@@H](O)CC6=O)nc5c4)c3Cl)c2Cl)ccc1CNC[C@@H]1CCC(=O)N1` [Example 342, 8-(2,2′-Dichloro-3′-(6-methoxy-5-(((((S)-5-oxopyrrolidin-2-yl)methyl)amino)methyl)pyridin-2-yl)-[1,1′-biphenyl]-3-yl)-2-(((S)-4-hydroxy-2-oxopyrrolidin-1-yl)methyl)-4H-pyrido[1,2-a]pyrimidin-4-one], `COc1nc(-c2cccc(-c3cccc(-c4ccn5c(=O)cc(CN[C@H]6C[C@](C)(O)C6)nc5c4)c3Cl)c2Cl)ccc1CNC[C@@H]1CCC(=O)N1` [Example 376, 8-(2,2′-Dichloro-3′-(6-methoxy-5-(((((S)-5-oxopyrrolidin-2-yl)methyl)amino)methyl)pyridin-2-yl)-[1,1′-biphenyl]-3-yl)-2-((((1r,3r)-3-hydroxy-3-methylcyclobutyl)amino)methyl)-4H-pyrido[1,2-a]pyrimidin-4-one] is 7-fold higher in IC50: 0.1 nM for the first, 0.7 nM for the second.

First: COc1nc(-c2cccc(-c3cccc(-c4ccn5c(=O)c(CN6C[C@H](O)C[C@H]6C(=O)O)cnc5c4)c3Cl)c2Cl)ccc1CNC[C@@H]1CCC(=O)N1 [Example 166, (2S,4R)-1-((8-(2,2′-Dichloro-3′-(6-methoxy-5-(((((S)-5-oxopyrrolidin-2-yl)methyl)amino)methyl)pyridin-2-yl)-[1,1′-biphenyl]-3-yl)-4-oxo-4H-pyrido[1,2-a]pyrimidin-3-yl)methyl)-4-hydroxypyrrolidine-2-carboxylic acid]
Second: COc1nc(-c2cccc(-c3cccc(-c4ccn5c(=O)c(CN6CC(C(C)(C)O)C6)cnc5c4)c3Cl)c2Cl)ccc1CNC[C@@H]1CCC(=O)N1 [Example 111, (S)-8-(2,2′-Dichloro-3′-(6-methoxy-5-((((5-oxopyrrolidin-2-yl)methyl)amino)methyl)pyridin-2-yl)-[1,1′-biphenyl]-3-yl)-3-((3-(2-hydroxypropan-2-yl)azetidin-1-yl)methyl)-4H-pyrido[1,2-a]pyrimidin-4-one]
The IC50 of the first is 65-fold lower: 0.1 nM for the first, 6.5 nM for the second. The first is the more potent here.

First: COc1nc(-c2cccc(-c3cccc(-c4ccc5nc(CN[C@H]6C[C@](C)(O)C6)cc(=O)n5c4)c3Cl)c2Cl)ccc1CNC[C@@H]1CCC(=O)N1 [Example 325, 7-(2,2′-dichloro-3′-(6-methoxy-5-(((((S)-5-oxopyrrolidin-2-yl)methyl)amino)methyl)pyridin-2-yl)-[1,1′-biphenyl]-3-yl)-2-((((1r,3r)-3-hydroxy-3-methylcyclobutyl)amino)methyl)-4H-pyrido[1,2-a]pyrimidin-4-one]
Second: COC(=O)[C@H](CO)NCc1ccc(-c2cccc(-c3cccc(-c4ccn5c(=O)c(CNC[C@@H]6CCC(=O)N6)cnc5c4)c3Cl)c2Cl)nc1OC [Example 113, Methyl ((6-(2,2′-dichloro-3′-(4-oxo-3-(((((S)-5-oxopyrrolidin-2-yl)methyl)amino)methyl)-4H-pyrido[1,2-a]pyrimidin-8-yl)-[1,1′-biphenyl]-3-yl)-2-methoxypyridin-3-yl)methyl)-L-serinate]
The IC50 of the first is 540-fold lower: 0.1 nM for the first, 54 nM for the second. The first is the more potent here.

Compared with `CNC(=O)[C@H]1CCN(Cc2cnc3cc(-c4cccc(-c5cccc(-c6ccc(CNC[C@@H]7CCC(=O)N7)c(OC)n6)c5Cl)c4Cl)ccn3c2=O)C1` [Example 257, (S)-1-((8-(2,2′-Dichloro-3′-(6-methoxy-5-(((((S)-5-oxopyrrolidin-2-yl)methyl)amino)methyl)pyridin-2-yl)-[1,1′-biphenyl]-3-yl)-4-oxo-4H-pyrido[1,2-a]pyrimidin-3-yl)methyl)-N-methylpyrrolidine-3-carboxamide], `COc1nc(-c2cccc(-c3cccc(-c4ccn5c(=O)c(CNCCNC(C)=O)cnc5c4)c3Cl)c2Cl)ccc1CNC[C@@H]1CCC(=O)N1` [Example 81, (S)—N-(2-(((8-(2,2′-Dichloro-3′-(6-methoxy-5-((((5-oxopyrrolidin-2-yl)methyl)amino)methyl)pyridin-2-yl)-[1,1′-biphenyl]-3-yl)-4-oxo-4H-pyrido[1,2-a]pyrimidin-3-yl)methyl)amino)ethyl)acetamide] is 4.4-fold higher in IC50: 1.9 nM for the first, 8.3 nM for the second. The first is the more potent here.

Going from `COc1nc(-c2cccc(-c3cccc(-c4cc5c(=O)n(C)c(CNC[C@@H](O)CC(=O)O)nn5c4)c3Cl)c2Cl)ccc1CNC[C@@H]1CCC(=O)N1` [Example 493, (3S)-4-[[6-[2-Chloro-3-[2-chloro-3-[6-methoxy-5-[[[(2S)-5-oxopyrrolidin-2-yl]methylamino]methyl]-2-pyridyl]phenyl]phenyl]-3-methyl-4-oxo-pyrrolo[2,1-f][1,2,4]triazin-2-yl]methylamino]-3-hydroxy-butanoic acid] to `COc1nc(-c2cccc(-c3cccc(-c4cc5c(=O)n(C)c(CNCC(C)(C)C(F)(F)F)nn5c4)c3Cl)c2Cl)ccc1CNC[C@@H]1CCC(=O)N1` [Example 466, (S)-6-(2,2′-Dichloro-3′-(6-methoxy-5-((((5-oxopyrrolidin-2-yl)methyl)amino)methyl)pyridin-2-yl)-[1,1′-biphenyl]-3-yl)-3-methyl-2-(((3,3,3-trifluoro-2,2-dimethylpropyl)amino)methyl) pyrrolo[2,1-f][1,2,4]triazin-4(3H)-one], the IC50 rises from 0.1 nM to 63 nM (630-fold). The first is the more potent here.

`COc1nc(-c2cccc(-c3cccc(-c4ccn5c(=O)c(CN(C)CCNC(=O)OC(C)(C)C)cnc5c4)c3Cl)c2Cl)ccc1CN(C)CCNC(=O)OC(C)(C)C` [Example 277, tert-butyl (2-(((6-(3′-(3-(((2-((tert-butoxycarbonyl)amino)ethyl)(methyl)amino)methyl)-4-oxo-4H-pyrido[1,2-a]pyrimidin-8-yl)-2,2′-dichloro-[1,1′-biphenyl]-3-yl)-2-methoxypyridin-3-yl)methyl)(methyl)amino)ethyl)carbamate] and `Cc1c(COc2cc(OCc3cncc(C#N)c3)c(CNCCO)cc2Cl)cccc1-c1cccc(-n2cnc3cc(CNCCO)ccc3c2=O)c1` [Example 5, 5-((4-Chloro-2-(((2-hydroxyethyl)amino)methyl)-5-((3′-(7-(((2-hydroxyethyl)amino)methyl)-4-oxoquinazolin-3(4H)-yl)-2-methyl-[1,1′-biphenyl]-3-yl)methoxy)phenoxy)methyl)nicotinonitrile] are within 1.5-fold of each other in IC50: 200 nM for the first, 150 nM for the second.
